# Data as given in patent EP0801527B1 (priority 1995, dated 1996).
# Where two headings read alike, the source gives them in different places.
# Experiments:
# [1] = test system: synaptosomes from the striatal area of rat brain; experiment: [3H]-Dopamine release from striatal synaptosomes (continuous perfusion); assay type: cell-based, Sprague-Dawley rats; conditions: for Emax: Rattus norvegicus; for EC50: rat striatal synaptosomes
# Procedure: Dopamine release was measured by preparing synaptosomes from the striatal area of rat brain obtained from Sprague-Dawley rats generally according to the procedures set forth by Nagy et al., J. Neurochem., Vol. 43, pp. 1114-1123 (1984). Striata from 4 rats were homogenized in 2 ml of 0.32M sucrose buffered with 5 mM HEPES (pH 7.5), using a glass-Teflon tissue grinder. The homogenate was diluted to 5 ml with additional homogenization solution and centrifuged at 1,000 x g for 10 min. This procedure was repeated on the new pellet and the resulting supernatant was centrifuged at 12,000 x g for 20 min. A 3 layer discontinuous Percoll gradient consisting of 16 percent, 10 percent and 7.5 percent Percoll in HEPES-buffered sucrose was made with the final pellet dispersed in the top layer. After centrifugation at 15,000 x g for 20 min., the synaptosomes were recovered above the 16 percent layer with a Pasteur pipette, diluted with 8 ml of perfusion buffer (128 mM NaCl, 2.4 mM KCl, 3.2 Mm CaCl2, 1.2 mM KH2PO4, 1.2 mM MgSO4, 25 mM HEPES pH 7.4, 10 mM dextrose, 1 mM ascorbate, 0.01 mM pargyline), and centrifuged at 15,000 x g for 20 min. The new pellet was collected and re-suspended in perfusion buffer. The synaptosome suspension was incubated for 10 min. at 37°C. [^3H]-Dopamine (Amersham, 40-60 Ci/mmol) was added to the suspension to give a final concentration of 0.1 uM, and the suspension was incubated for another 5 min. Using this method, 30 to 90 percent of the dopamine was taken up into the synaptosomes, as determined by scintillation counting following filtration through glass fiber filters soaked with 0.5 percent polyethyleneimine. A continuous perfusion system was used to monitor release following exposure to each ligand. Synaptosomes were loaded onto glass fiber filters (Gelman type A/E). Perfusion buffer was dripped onto the filters (0.2-0.3 ml/min.) and pulled through the filters with a peristaltic pump. Synaptosomes were washed with perfusion buffer for a minimum of 20 min. before addition of the ligand. After the addition of 0.2 ml of a solution containing various concentrations of ligand, the perfusate was collected into scintillation vials at 1 min. intervals and the dopamine released was quantified by scintillation counting. Peaks of radioactivity released above background were summed and the average basal release during that time was subtracted from the total.
# [2] = target: T1, muscle-like nicotinic receptors (Homo sapiens, UniProt P02708+P07510+Q07001); experiment: cell-based; assay type: cell-based; conditions: for Emax: TE671/RD, read-out: Muscle Effect
# T1 construct: Intact cells on dishes were used for functional studies; endogenous in cells; host or cells: TE671/RD human embryonal rhabdomyosarcoma cells
# [3] = target: T2, ganglionic-type neuronal nicotinic receptors (Rattus norvegicus, UniProt P04757+P12392); experiment: cell-based; conditions: for Emax: PC-12, read-out: Ganglion Effect
# T2 construct: Intact cells on dishes were used for functional studies; endogenous in cells; host or cells: PC12 rat pheochromocytoma cells
# [4] = target: T3, high affinity CNS nicotinic receptors (Rattus norvegicus, UniProt P09483+P12390); experiment: biochemical; assay type: binding, Rats (Sprague-Dawley)
# T3 construct: Brain membrane preparations were obtained from brain tissue of either males or females; from tissue; host or cells: rat (Sprague-Dawley) brain without cerebellum, membrane preparation
# T3 sequence (P09483 31-630): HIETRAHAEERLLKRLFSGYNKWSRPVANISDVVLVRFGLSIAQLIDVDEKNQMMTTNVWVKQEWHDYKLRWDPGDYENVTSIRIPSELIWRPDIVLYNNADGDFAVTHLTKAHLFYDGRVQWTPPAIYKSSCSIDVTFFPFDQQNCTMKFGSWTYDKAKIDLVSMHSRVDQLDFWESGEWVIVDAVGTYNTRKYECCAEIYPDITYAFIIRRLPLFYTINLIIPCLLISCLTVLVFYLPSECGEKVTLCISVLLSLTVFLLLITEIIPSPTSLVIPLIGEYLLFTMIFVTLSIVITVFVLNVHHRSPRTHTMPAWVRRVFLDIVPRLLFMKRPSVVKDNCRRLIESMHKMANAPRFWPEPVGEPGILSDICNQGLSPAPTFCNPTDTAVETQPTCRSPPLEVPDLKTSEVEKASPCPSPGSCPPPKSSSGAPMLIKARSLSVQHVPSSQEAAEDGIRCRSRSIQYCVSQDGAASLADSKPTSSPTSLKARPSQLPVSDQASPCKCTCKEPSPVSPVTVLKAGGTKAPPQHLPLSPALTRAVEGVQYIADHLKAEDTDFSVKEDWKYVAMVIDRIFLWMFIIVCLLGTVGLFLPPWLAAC
# T3 sequence (P12390 25-500): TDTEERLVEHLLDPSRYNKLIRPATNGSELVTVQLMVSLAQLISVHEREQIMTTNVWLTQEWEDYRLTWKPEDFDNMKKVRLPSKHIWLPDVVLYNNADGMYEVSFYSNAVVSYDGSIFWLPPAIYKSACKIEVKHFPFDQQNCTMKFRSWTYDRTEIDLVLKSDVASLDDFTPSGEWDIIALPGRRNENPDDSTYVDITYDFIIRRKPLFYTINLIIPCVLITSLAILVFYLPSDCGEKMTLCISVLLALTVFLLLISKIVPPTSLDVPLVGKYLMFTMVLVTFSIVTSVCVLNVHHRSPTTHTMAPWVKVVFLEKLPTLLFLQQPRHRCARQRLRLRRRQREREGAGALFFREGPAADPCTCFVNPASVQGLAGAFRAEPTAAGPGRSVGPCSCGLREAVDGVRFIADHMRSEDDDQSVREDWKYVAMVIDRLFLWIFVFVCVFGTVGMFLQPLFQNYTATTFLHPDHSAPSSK
# T2 sequence (P04757 26-499): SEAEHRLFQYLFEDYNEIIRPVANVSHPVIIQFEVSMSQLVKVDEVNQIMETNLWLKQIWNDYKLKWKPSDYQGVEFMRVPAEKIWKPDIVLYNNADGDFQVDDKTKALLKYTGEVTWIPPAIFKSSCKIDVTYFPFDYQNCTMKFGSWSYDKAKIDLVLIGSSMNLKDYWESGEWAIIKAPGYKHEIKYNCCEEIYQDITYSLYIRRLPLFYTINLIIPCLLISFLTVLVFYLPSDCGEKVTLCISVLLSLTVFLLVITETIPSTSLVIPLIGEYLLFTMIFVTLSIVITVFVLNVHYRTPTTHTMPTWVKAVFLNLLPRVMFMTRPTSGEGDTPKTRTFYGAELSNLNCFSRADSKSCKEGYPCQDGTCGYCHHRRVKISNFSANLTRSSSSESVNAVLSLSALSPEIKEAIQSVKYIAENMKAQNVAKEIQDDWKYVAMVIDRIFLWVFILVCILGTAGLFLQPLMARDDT
# T2 sequence (P12392 21-495): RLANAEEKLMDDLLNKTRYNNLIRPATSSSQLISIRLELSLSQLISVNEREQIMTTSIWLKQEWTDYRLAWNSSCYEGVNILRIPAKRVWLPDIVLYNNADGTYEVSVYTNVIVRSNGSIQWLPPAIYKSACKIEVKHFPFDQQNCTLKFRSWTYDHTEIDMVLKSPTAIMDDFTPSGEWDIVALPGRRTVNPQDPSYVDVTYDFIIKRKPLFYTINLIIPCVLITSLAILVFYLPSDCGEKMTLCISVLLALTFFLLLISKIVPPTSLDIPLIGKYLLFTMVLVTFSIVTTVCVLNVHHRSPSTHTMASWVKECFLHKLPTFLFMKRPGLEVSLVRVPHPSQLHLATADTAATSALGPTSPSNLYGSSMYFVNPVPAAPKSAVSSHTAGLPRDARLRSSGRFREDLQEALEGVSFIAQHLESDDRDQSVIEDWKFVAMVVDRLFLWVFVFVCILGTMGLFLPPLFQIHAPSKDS
# T1 sequence (P02708 21-457): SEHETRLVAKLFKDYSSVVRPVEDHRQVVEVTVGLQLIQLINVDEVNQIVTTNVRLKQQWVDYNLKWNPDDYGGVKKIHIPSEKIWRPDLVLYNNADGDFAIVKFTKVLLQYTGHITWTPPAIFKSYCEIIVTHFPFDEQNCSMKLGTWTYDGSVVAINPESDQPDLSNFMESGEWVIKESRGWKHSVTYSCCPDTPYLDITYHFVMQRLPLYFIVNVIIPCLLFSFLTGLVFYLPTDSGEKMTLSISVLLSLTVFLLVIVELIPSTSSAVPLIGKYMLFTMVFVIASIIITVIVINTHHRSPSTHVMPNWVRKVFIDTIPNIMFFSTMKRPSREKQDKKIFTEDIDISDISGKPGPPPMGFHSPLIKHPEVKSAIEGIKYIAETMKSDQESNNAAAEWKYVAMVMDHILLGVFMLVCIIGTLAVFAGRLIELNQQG
# T1 sequence (P07510 23-517): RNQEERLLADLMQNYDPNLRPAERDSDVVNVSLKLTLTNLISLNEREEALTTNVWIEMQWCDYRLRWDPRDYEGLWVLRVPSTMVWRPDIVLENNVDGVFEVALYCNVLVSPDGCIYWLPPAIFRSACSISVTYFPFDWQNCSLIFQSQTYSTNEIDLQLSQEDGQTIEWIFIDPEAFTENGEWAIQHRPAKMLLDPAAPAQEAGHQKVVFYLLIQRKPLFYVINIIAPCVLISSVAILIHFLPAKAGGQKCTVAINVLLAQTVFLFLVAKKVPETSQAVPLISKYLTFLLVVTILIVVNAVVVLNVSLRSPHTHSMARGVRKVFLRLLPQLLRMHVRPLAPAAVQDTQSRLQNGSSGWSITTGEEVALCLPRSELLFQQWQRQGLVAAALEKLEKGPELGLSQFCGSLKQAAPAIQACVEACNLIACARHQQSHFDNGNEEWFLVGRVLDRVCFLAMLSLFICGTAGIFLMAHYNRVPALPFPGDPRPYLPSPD
# T1 sequence (P11230 24-501, further chain): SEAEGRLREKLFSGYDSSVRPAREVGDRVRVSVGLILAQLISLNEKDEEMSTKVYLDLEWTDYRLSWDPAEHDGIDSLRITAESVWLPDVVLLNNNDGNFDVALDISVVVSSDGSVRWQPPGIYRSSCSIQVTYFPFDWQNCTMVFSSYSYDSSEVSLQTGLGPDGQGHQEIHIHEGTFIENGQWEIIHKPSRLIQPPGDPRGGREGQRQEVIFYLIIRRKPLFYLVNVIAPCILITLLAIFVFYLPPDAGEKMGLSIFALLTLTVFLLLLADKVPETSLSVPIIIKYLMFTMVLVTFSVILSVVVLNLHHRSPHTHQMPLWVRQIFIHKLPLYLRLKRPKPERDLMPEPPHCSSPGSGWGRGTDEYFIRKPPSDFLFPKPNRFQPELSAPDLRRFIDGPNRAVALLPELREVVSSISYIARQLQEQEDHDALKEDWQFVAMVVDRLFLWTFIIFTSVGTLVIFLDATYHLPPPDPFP
# T1 sequence (Q07001 22-517): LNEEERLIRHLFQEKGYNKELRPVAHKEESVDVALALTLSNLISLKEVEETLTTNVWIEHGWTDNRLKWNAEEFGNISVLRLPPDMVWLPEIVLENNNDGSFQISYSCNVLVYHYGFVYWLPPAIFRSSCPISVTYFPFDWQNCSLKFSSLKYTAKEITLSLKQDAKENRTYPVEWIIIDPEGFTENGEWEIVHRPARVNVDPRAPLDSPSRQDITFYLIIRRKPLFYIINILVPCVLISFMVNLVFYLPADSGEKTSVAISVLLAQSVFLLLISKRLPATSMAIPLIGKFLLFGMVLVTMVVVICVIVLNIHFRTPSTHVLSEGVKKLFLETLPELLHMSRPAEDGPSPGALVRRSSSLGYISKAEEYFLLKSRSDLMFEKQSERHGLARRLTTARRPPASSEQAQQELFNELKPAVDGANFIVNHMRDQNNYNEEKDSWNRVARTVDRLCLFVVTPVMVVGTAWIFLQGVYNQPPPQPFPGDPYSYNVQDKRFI
SMILES,Emax [1] [%],EC50 [1] [nM],Emax [2] [%],Emax [3] [%],other results
"NCC/C=C/c1cncnc1 [Sample No. 1, (E)-4-(5-pyrimidinyl)-3-butene-1-amine monofumarate]",113,4360,,,
"CNCC/C=C/c1cncnc1 [Sample No. 2, (E)-N-methyl-4-(5-pyrimidinyl)-3-butene-1-amine]",77,5800,4,1,
"COc1cncc(/C=C/CCN)c1 [Sample No. 3, (E)-4-[3-(5-methoxypyridin)yl] -3-butene-1-amine monofumarate]",95,4000,0,0,
"CNCCC#Cc1cccnc1 [Sample No. 4, N-Methyl-4-(3-pyridinyl)-3-butyne-1-amine]",87,8350,,,Muscle Effect ([2]; te671/rd cells): 7 % nicotine; Ganglion Effect ([3]; pc12 cells): 59 % nicotine; Ki [4]: 58 nM
"CNCC/C=C\c1cccnc1 [Sample No. 5, (Z) metanicotine]",,,,,Dopamine Release Emax [1]: 88 %nicotine
"CNCC/C=C/c1ccc(C)nc1 [Sample No. 6, (E)-N-methyl-4-[3-(6-methylpyrindin)yl]-3-butene-1-amine]",60,219,2,4,
"CNCCCCc1cccnc1 [Sample No. 7, N-methyl-(3-pyridinyl)-butane-1-amine]",72,,,,Ki [4]: 910 nM
"CNCC/C=C/c1cccnc1 [Sample No. 8, (E)-metanicotine, reference compound]",,,,,Muscle Effect [2]: 15 % nicotine; Dopamine Release Emax [1]: 80 %nicotine
"CN1CCC[C@H]1c1cccnc1 [Sample No. C-1, (S)-(-)-nicotine, reference compound]",100,115,,,
